According to article PMC7531004, “Discovery of gramicidin A analogues with altered activities by multidimensional screening of a one-bead-one-compound library” (Nature Communications, 2020):
Where a SMILES comes first, the peptide text is derived from it. [ ]: non-standard residue; d: D form. The star is where a group is joined. NHCH2CH2OH = OCCN*; For = O=C*

Legend:
[1] = tested on: Streptococcus pyogenes SSI-9; experiment: Antibacterial activity assay of bead-derived peptides (three concentrations); type: cell-based; parameters: key: +++: inhibition by the 640-fold diluted peptide solution; ++: inhibition by the 160-fold diluted solution; +: inhibition by the 40-fold diluted solution; -: no inhibition; conditions: S. pyogenes, bead-derived peptide solution, three concentrations
In short: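 First, each peptide stock was diluted 4- and 16-fold in DMSO; next, the three solutions were mixed with S. pyogenes SSI-9 suspension (2 × 10^5 CFU) in cation-adjusted Mueller Hinton Broth plus 5% laked horse blood; finally, plates stood 18 h at 37 °C before checking for grown-cell precipitation.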

[2] = tested on: P388 mouse leukemia cells; conditions: 92 h
In short: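 Peptide stocks diluted 250× in growth medium; P388 cells 1 × 10^4 cells/mL final; 37 °C, 5% CO2, 92 h. WST-1 + 1-methoxy PMS, 4 h, A415. Output: % viability.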

[3] = H+/Na+ transport assay of bead-derived peptides (one-point); type: biochemical; parameters: key: relative activity; mean of two control wells = 1.00; conditions: bead-derived peptide solution, EYPC/EYPG LUVs;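 note: relative to parent gramicidin A activity set to 1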
In short: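 H+/Na+ transport is monitored through pyranine fluorescence in freshly extruded LUVs after a 30-min room-temperature vortex with each library peptide at a single concentration. Signals are normalized to detergent (Triton X-100) and untreated controls.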

Structure (SMILES) | antibacterial activity [1] | cell viability/% [2] [%] | H+/Na+ transport activity normalized against the value of 1 (1.00) [3]
CC(C)C[C@@H](NC(=O)[C@H](C)NC(=O)CNC(=O)[C@@H](NC=O)C(C)C)C(=O)N[C@@H](C)C(=O)N[C@@H](C(=O)N[C@H](C(=O)N[C@H](CC(C)C)C(=O)N[C@@H](Cc1c[nH]c2ccccc12)C(=O)N[C@@H](C(=O)N[C@@H](Cc1c[nH]c2ccccc12)C(=O)N[C@@H](C(=O)N[C@@H](Cc1c[nH]c2ccccc12)C(=O)N[C@@H](C(=O)N[C@@H](Cc1c[nH]c2ccccc12)C(=O)NCCO)C(C)C)C(C)C)C(C)C)C(C)C)C(C)C [compound 7938] (For-VGA[dL]A[dV]V[dL]W[dV]W[dV]W[dV]W-NHCH2CH2OH) | + | 17.4 | 1.10
CC(C)C[C@@H](NC(=O)[C@H](C)NC(=O)CNC(=O)[C@@H](NC=O)C(C)C)C(=O)N[C@@H](C)C(=O)N[C@H](CC(C)C)C(=O)N[C@H](C(=O)N[C@H](CC(C)C)C(=O)N[C@@H](Cc1c[nH]c2ccccc12)C(=O)N[C@H](CC(C)C)C(=O)N[C@@H](Cc1c[nH]c2ccccc12)C(=O)N[C@@H](C(=O)N[C@@H](Cc1c[nH]c2ccccc12)C(=O)N[C@@H](C(=O)N[C@@H](Cc1c[nH]c2ccccc12)C(=O)NCCO)C(C)C)[C@H](C)O)C(C)C [compound 12989] (For-VGA[dL]A[dL]V[dL]W[dL]W[dT]W[dV]W-NHCH2CH2OH) | + | 100.0 | 1.16
CC(C)C[C@@H](NC(=O)[C@H](C)NC(=O)CNC(=O)[C@@H](NC=O)C(C)C)C(=O)N[C@@H](C)C(=O)N[C@@H](C(=O)N[C@H](C(=O)N[C@H](CC(C)C)C(=O)N[C@@H](Cc1c[nH]c2ccccc12)C(=O)N[C@@H](C(=O)N[C@@H](Cc1c[nH]c2ccccc12)C(=O)N[C@H](CC(C)C)C(=O)N[C@@H](Cc1c[nH]c2ccccc12)C(=O)N[C@@H](C(=O)N[C@@H](Cc1c[nH]c2ccccc12)C(=O)NCCO)C(C)C)C(C)C)C(C)C)C(C)C [compound 4895] (For-VGA[dL]A[dV]V[dL]W[dV]W[dL]W[dV]W-NHCH2CH2OH) | + | 48.2 | 1.16
CC(C)C[C@@H](NC(=O)[C@H](C)NC(=O)[C@H](NC(=O)[C@H](C)NC(=O)CNC(=O)[C@@H](NC=O)C(C)C)[C@H](C)O)C(=O)N[C@H](C(=O)N[C@H](CC(C)C)C(=O)N[C@@H](Cc1c[nH]c2ccccc12)C(=O)N[C@@H](C(=O)N[C@@H](Cc1c[nH]c2ccccc12)C(=O)N[C@@H](C(=O)N[C@@H](Cc1c[nH]c2ccccc12)C(=O)N[C@H](CC(C)C)C(=O)N[C@@H](Cc1c[nH]c2ccccc12)C(=O)NCCO)C(C)C)[C@H](C)O)C(C)C [compound 7015] (For-VGA[dT]A[dL]V[dL]W[dT]W[dV]W[dL]W-NHCH2CH2OH) | - | 100.0 | 1.07
CC(C)C[C@@H](NC(=O)[C@H](C)NC(=O)CNC(=O)[C@@H](NC=O)C(C)C)C(=O)N[C@@H](C)C(=O)N[C@H](CC(C)C)C(=O)N[C@H](C(=O)N[C@@H](C(=O)N[C@@H](Cc1c[nH]c2ccccc12)C(=O)N[C@@H](C(=O)N[C@@H](Cc1c[nH]c2ccccc12)C(=O)N[C@@H](C(=O)N[C@@H](Cc1c[nH]c2ccccc12)C(=O)N[C@H](CC(C)C)C(=O)N[C@@H](Cc1c[nH]c2ccccc12)C(=O)NCCO)C(C)C)[C@H](C)O)C(C)C)C(C)C [compound 12081] (For-VGA[dL]A[dL]V[dV]W[dT]W[dV]W[dL]W-NHCH2CH2OH) | - | 100.0 | 1.01
CC(C)C[C@@H](NC(=O)[C@H](C)NC(=O)CNC(=O)[C@@H](NC=O)C(C)C)C(=O)N[C@@H](C)C(=O)N[C@@H](C(=O)N[C@H](C(=O)N[C@@H](C(=O)N[C@@H](Cc1c[nH]c2ccccc12)C(=O)N[C@@H](C(=O)N[C@@H](Cc1c[nH]c2ccccc12)C(=O)N[C@@H](C(=O)N[C@@H](Cc1c[nH]c2ccccc12)C(=O)N[C@H](CC(C)C)C(=O)N[C@@H](Cc1c[nH]c2ccccc12)C(=O)NCCO)C(C)C)C(C)C)C(C)C)C(C)C)C(C)C [compound 9223] (For-VGA[dL]A[dV]V[dV]W[dV]W[dV]W[dL]W-NHCH2CH2OH) | + | 100.0 | 1.03
CC(C)C[C@@H](NC(=O)[C@H](C)NC(=O)[C@H](NC(=O)[C@H](C)NC(=O)CNC(=O)[C@@H](NC=O)C(C)C)C(C)C)C(=O)N[C@H](C(=O)N[C@H](CC(C)C)C(=O)N[C@@H](Cc1c[nH]c2ccccc12)C(=O)N[C@H](CC(C)C)C(=O)N[C@@H](Cc1c[nH]c2ccccc12)C(=O)N[C@H](CC(C)C)C(=O)N[C@@H](Cc1c[nH]c2ccccc12)C(=O)N[C@H](CC(C)C)C(=O)N[C@@H](Cc1c[nH]c2ccccc12)C(=O)NCCO)C(C)C [compound 12877] (For-VGA[dV]A[dL]V[dL]W[dL]W[dL]W[dL]W-NHCH2CH2OH) | - | 4.7 | 1.04
CC(C)C[C@@H](NC(=O)[C@H](C)NC(=O)CNC(=O)[C@@H](NC=O)C(C)C)C(=O)N[C@@H](C)C(=O)N[C@@H](C(=O)N[C@H](C(=O)N[C@H](CC(C)C)C(=O)N[C@@H](Cc1c[nH]c2ccccc12)C(=O)N[C@@H](C(=O)N[C@@H](Cc1c[nH]c2ccccc12)C(=O)N[C@@H](C(=O)N[C@@H](Cc1c[nH]c2ccccc12)C(=O)N[C@@H](C(=O)N[C@@H](Cc1c[nH]c2ccccc12)C(=O)NCCO)C(C)C)C(C)C)C(C)C)C(C)C)C(C)C [compound 8796] (For-VGA[dL]A[dV]V[dL]W[dV]W[dV]W[dV]W-NHCH2CH2OH) | + | 74.1 | 1.15
CC(C)C[C@@H](NC(=O)[C@H](C)NC(=O)[C@H](NC(=O)[C@H](C)NC(=O)CNC(=O)[C@@H](NC=O)C(C)C)[C@H](C)O)C(=O)N[C@H](C(=O)N[C@H](CC(C)C)C(=O)N[C@@H](Cc1c[nH]c2ccccc12)C(=O)N[C@@H](C(=O)N[C@@H](Cc1c[nH]c2ccccc12)C(=O)N[C@H](CC(C)C)C(=O)N[C@@H](Cc1c[nH]c2ccccc12)C(=O)N[C@@H](C(=O)N[C@@H](Cc1c[nH]c2ccccc12)C(=O)NCCO)C(C)C)[C@H](C)O)C(C)C [compound 1284] (For-VGA[dT]A[dL]V[dL]W[dT]W[dL]W[dV]W-NHCH2CH2OH) | - | 71.2 | 1.06
CC(C)C[C@@H](NC(=O)[C@H](Cc1c[nH]c2ccccc12)NC(=O)[C@H](NC(=O)[C@H](Cc1c[nH]c2ccccc12)NC(=O)[C@@H](CC(C)C)NC(=O)[C@H](Cc1c[nH]c2ccccc12)NC(=O)[C@@H](CC(C)C)NC(=O)[C@@H](NC(=O)[C@H](NC(=O)[C@H](C)NC(=O)[C@H](NC(=O)[C@H](C)NC(=O)CNC(=O)[C@@H](NC=O)C(C)C)[C@H](C)O)C(C)C)C(C)C)C(C)C)C(=O)N[C@@H](Cc1c[nH]c2ccccc12)C(=O)NCCO [compound 4440] (For-VGA[dT]A[dV]V[dL]W[dL]W[dV]W[dL]W-NHCH2CH2OH) | - | 85.6 | 1.15
CNC(=O)C[C@@H](NC(=O)[C@@H](NC(=O)[C@@H](CC(C)C)NC(=O)[C@H](C)NC(=O)[C@@H](CC(C)C)NC(=O)[C@H](C)NC(=O)CNC(=O)[C@@H](NC=O)C(C)C)C(C)C)C(=O)N[C@@H](Cc1c[nH]c2ccccc12)C(=O)N[C@H](CC(C)C)C(=O)N[C@@H](Cc1c[nH]c2ccccc12)C(=O)N[C@H](CC(C)C)C(=O)N[C@@H](Cc1c[nH]c2ccccc12)C(=O)N[C@@H](C(=O)N[C@@H](Cc1c[nH]c2ccccc12)C(=O)NCCO)C(C)C [compound 5491] (For-VGA[dL]A[dL]V[dD](NHMe)W[dL]W[dL]W[dV]W-NHCH2CH2OH) | - | 100.0 | 1.24
CC(C)C[C@@H](NC(=O)[C@H](C)NC(=O)[C@H](NC(=O)[C@H](C)NC(=O)CNC(=O)[C@@H](NC=O)C(C)C)C(C)C)C(=O)N[C@H](C(=O)N[C@@H](C(=O)N[C@@H](Cc1c[nH]c2ccccc12)C(=O)N[C@@H](C(=O)N[C@@H](Cc1c[nH]c2ccccc12)C(=O)N[C@H](CC(C)C)C(=O)N[C@@H](Cc1c[nH]c2ccccc12)C(=O)N[C@@H](C(=O)N[C@@H](Cc1c[nH]c2ccccc12)C(=O)NCCO)C(C)C)C(C)C)[C@H](C)O)C(C)C [compound 13174] (For-VGA[dV]A[dL]V[dT]W[dV]W[dL]W[dV]W-NHCH2CH2OH) | - | 100.0 | 1.18
CNC(=O)C[C@@H](NC(=O)[C@@H](NC(=O)[C@@H](CC(C)C)NC(=O)[C@H](C)NC(=O)[C@@H](CC(C)C)NC(=O)[C@H](C)NC(=O)CNC(=O)[C@@H](NC=O)C(C)C)C(C)C)C(=O)N[C@@H](Cc1c[nH]c2ccccc12)C(=O)N[C@@H](C(=O)N[C@@H](Cc1c[nH]c2ccccc12)C(=O)N[C@@H](C(=O)N[C@@H](Cc1c[nH]c2ccccc12)C(=O)N[C@H](CC(C)C)C(=O)N[C@@H](Cc1c[nH]c2ccccc12)C(=O)NCCO)C(C)C)C(C)C [compound 2951] (For-VGA[dL]A[dL]V[dD](NHMe)W[dV]W[dV]W[dL]W-NHCH2CH2OH) | - | 93.1 | 1.10
